Active and inactive are the calls of the source. The rule behind the calls is not given here.
Experiments:
[1] = target: T1, Glycogen synthase kinase-3 beta (Homo sapiens, UniProt P49841); assay: biochemical; format: cell-based, Sf9
Target sequence in this assay (P49841 whole entry): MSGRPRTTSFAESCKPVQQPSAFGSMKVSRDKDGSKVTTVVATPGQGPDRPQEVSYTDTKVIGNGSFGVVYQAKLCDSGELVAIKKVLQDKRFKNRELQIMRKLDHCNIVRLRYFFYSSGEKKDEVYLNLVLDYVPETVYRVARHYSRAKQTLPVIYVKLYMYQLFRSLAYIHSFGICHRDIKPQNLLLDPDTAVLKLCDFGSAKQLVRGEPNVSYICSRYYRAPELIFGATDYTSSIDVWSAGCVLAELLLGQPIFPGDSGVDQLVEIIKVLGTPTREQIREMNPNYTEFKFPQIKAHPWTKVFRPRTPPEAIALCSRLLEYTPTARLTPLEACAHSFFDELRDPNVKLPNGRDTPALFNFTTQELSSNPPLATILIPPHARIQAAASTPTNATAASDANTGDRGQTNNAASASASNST

[2] = target: Dual specificity tyrosine-phosphorylation-regulated kinase 1A (Homo sapiens) (UniProt Q13627); assay: Inhibition of DYRK1A in human SH-SY5Y cells assessed as decrease in OKA-induce DYRK1A-Tyr321/27 hyperphosphorylation at 250 to 1000 nM by Western blot analysis; format: cell-based; settings: dose 250-1000 nM
Mus musculus [3] = assay: Improvement in learning and spatial memory in mouse harboring APP/PSI/Tau assessed as decrease in escape latency at 10 to 30 mg/kg, po for 30 consecutive days and studied for 5 days by Morris water maze test relative to control; format: functional, organism-based; settings: dose 10-30 mg/kg, time 30.0 day
[4] = target: T1, Glycogen synthase kinase-3 beta; assay: Inhibition of GSK3beta in human SH-SY5Y cells assessed as decrease in OKA-induce tau-S396 hyperphosphorylation at 250 to 1000 nM by Western blot analysis; format: cell-based; settings: dose 250-1000 nM
Target sequence in this assay (P49841 whole entry, looked up): as the sequence (P49841 whole entry) above

[5] = Permeability of compound by PAMPA-BBB assay
[6] = Neurotoxicity against human SH-SY5Y cells assessed as cell viability at 10 uM measured for 24 to 72 hrs by MTT assay; format: cell-based; settings: time 24-72 hrs
[7] = Neurotoxicity against human SH-SY5Y cells assessed as cell viability at 15 to 20 uM measured for 36 to 72 hrs by MTT assay; format: cell-based; settings: dose lower 15 µM, time lower 36 hrs, dose upper 20 µM, time upper 72 hrs
L02 = assay: Cytotoxicity against human HL7702 cells assessed as cell viability measured at 5 to 20 uM for 24 to 72 hrs by MTT assay; format: cell-based; settings: l02, 20 µM, dose lower 5 µM, time lower 24 hrs, dose upper 20 µM, time upper 72 hrs
Mus musculus [8] = assay: Cognitive enhancing effect in mouse harboring APP/PSI/Tau assessed as improvement in time spent in the platform quadrant at 10 to 30 mg/kg, po for 30 consecutive days and studied for 5 days by Morris water maze test relative to control; format: functional, organism-based; settings: dose 10-30 mg/kg, time 30.0 day
[9] = target: T1, Glycogen synthase kinase-3 beta; assay: Inhibition of GSK3beta phosphorylation expression in human SH-SY5Y cells at 250 to 1000 nM by Western blot analysis; format: cell-based; settings: dose 250-1000 nM
Target sequence in this assay (P49841 whole entry, looked up): as the sequence (P49841 whole entry) above

[10] = target: T1, Glycogen synthase kinase-3 beta; assay: Inhibition of GSK3beta in human SH-SY5Y cells assessed as increase in OKA-induce GSK3beta at serine 9 hyperphosphorylation by Western blot analysis; format: cell-based
Target sequence in this assay (P49841 whole entry, looked up): as the sequence (P49841 whole entry) above

[11] = target: T1, Glycogen synthase kinase-3 beta; assay: Inhibition of human full length GSK3beta expressed in baculovirus in Sf9 insect cells assessed as enzyme activity using YRRAAVPPSPSLSRHSSPHQ(pS)EDEEE as substrate at 0.7 uM by ADP-Glo kinase assay relative to control; parameters: scale not given: the % may be the effect or the level left
Target sequence in this assay (P49841 whole entry, looked up): as the sequence (P49841 whole entry) above

Mus musculus [12] = assay: Cognitive enhancing effect in mouse harboring APP/PSI/Tau assessed as improvement in number of crossing the virtual platform at 10 to 30 mg/kg, po for 30 consecutive days and studied for 5 days by Morris water maze test relative to control; format: functional, organism-based; settings: dose 10-30 mg/kg, time 30.0 day
SH-SY5Y = assay: Reduction in neurofibrillary tangles formation in OKA-treated human SH-SY5Y cells at 250 to 1000 nM by Western blot analysis; format: functional, cell-based; settings: dose 250-1000 nM
[13] = target: T1, Glycogen synthase kinase-3 beta; assay: Inhibition of human full length GSK3beta expressed in baculovirus in Sf9 insect cells assessed as enzyme activity using YRRAAVPPSPSLSRHSSPHQ(pS)EDEEE as substrate at 0.14 uM by ADP-Glo kinase assay relative to control; parameters: scale not given: the % may be the effect or the level left
Target sequence in this assay (P49841 whole entry, looked up): as the sequence (P49841 whole entry) above

[14] = target: Dual specificity tyrosine-phosphorylation-regulated kinase 1A (Rattus norvegicus, UniProt Q63470); assay: Inhibition of rat recombinant DYRK1A expressed in Escherichia coli using RRRFRPASPLRGPPK as substrate by ADP-Glo kinase assay
Mus musculus [15] = assay: Improvement in learning and spatial memory in mouse harboring APP/PSI/Tau assessed as improvement in trajectory at […], po for 30 consecutive days and studied for 5 days by Morris water maze test relative to control; format: functional, organism-based; settings: time 5.0 day
Mus musculus [16] = assay: Improvement in learning and spatial memory in mouse harboring APP/PSI/Tau assessed as improvement in trajectory at 20 mg/kg, po for 30 consecutive days and studied for 5 days by Morris water maze test relative to control; format: functional, organism-based; settings: time 30.0 day

Structure (SMILES): O=C(Nc1cc2c(cn1)[nH]c1cc(OC(F)(F)F)ccc12)C1CC1
- IC50 [1]: > 10 µM

Structure (SMILES): N#Cc1ccc2c(c1)[nH]c1c(NC(=O)C3CC3)nccc12
- IC50 [1]: > 10 µM

Structure (SMILES): COC(=O)c1ccc2c(c1)[nH]c1c(NC(=O)C3CC3)nccc12
- Activity [2]: Active
- Activity (Mus musculus [3]): Active
- Activity [4]: Active
- Papp [5]: 16.5 ×10⁻⁶ cm/s
- Activity [6]: Non-Toxic
- Activity [7]: Non-Toxic
- IC50 [1]: 0.071 µM
- Activity (L02): Toxic
- Activity (Mus musculus [8]): Active
- Activity [9]: Active
- Activity [10]: Dose-Dependent Effect
- Activity [11]: 1%
- Activity (Mus musculus [12]): Active
- Activity (SH-SY5Y): Active
- Activity [13]: 10%

Structure (SMILES): O=Cc1ccc2c(c1)[nH]c1cnc(NC(=O)C3CC3)cc12
- IC50 [1]: > 10 µM

Structure (SMILES): CN[C@@H]1C[C@H]2O[C@@](C)([C@@H]1OC)n1c3ccccc3c3c4c(c5c6ccccc6n2c5c31)C(=O)NC4 [STAUROSPORINE]
- IC50 [14]: 0.012 µM

Structure (SMILES): O=C(Nc1nccc2c1[nH]c1cc(-c3cccnc3)ccc12)C1CC1
- IC50 [1]: > 10 µM

Structure (SMILES): COC(=O)c1ccc2c(c1)[nH]c1cnc(NC(=O)C3CC3)cc12
- IC50 [1]: > 10 µM

Structure (SMILES): Cn1c(=O)c2c(ncn2C)n(C)c1=O [CAFFEINE]
- Papp [5]: 3.2 ×10⁻⁶ cm/s

Structure (SMILES): N#Cc1ccc2c(c1)[nH]c1cnc(NC(=O)C3CC3)cc12
- IC50 [1]: > 10 µM

Structure (SMILES): O=Cc1ccc2c(c1)[nH]c1c(NC(=O)C3CC3)nccc12
- Papp [5]: 14.3 ×10⁻⁶ cm/s
- IC50 [1]: 0.4 µM

Structure (SMILES): O=C(Nc1nccc2c1[nH]c1cc(F)ccc12)C1CC1
- Papp [5]: 33.3 ×10⁻⁶ cm/s
- IC50 [1]: 4.8 µM

Structure (SMILES): NC(=O)c1ccc2c(c1)[nH]c1cnc(NC(=O)C3CC3)cc12
- IC50 [1]: > 10 µM

Structure (SMILES): COc1ccc(-c2ccc3c(c2)[nH]c2cnc(NC(=O)C4CC4)cc23)cc1
- IC50 [1]: > 10 µM

Structure (SMILES): O=C(Nc1nccc2c1[nH]c1cc(-c3ccccc3)ccc12)C1CC1
- IC50 [1]: 6.59 µM

Structure (SMILES): COc1ccc(-c2ccc3c(c2)[nH]c2c(NC(=O)C4CC4)nccc23)cc1
- IC50 [1]: > 10 µM

Structure (SMILES): [Cl-].[Li+]
- Activity (Mus musculus [15]): Active

Structure (SMILES): O=C(Nc1cc2c(cn1)[nH]c1cc(F)ccc12)C1CC1
- IC50 [1]: > 10 µM

Structure (SMILES): O=C(Nc1cc2c(cn1)[nH]c1cc(C(F)(F)F)ccc12)C1CC1
- IC50 [1]: > 10 µM

Structure (SMILES): O=C(Nc1cc2c(cn1)[nH]c1cc(Cl)ccc12)C1CC1
- IC50 [1]: > 10 µM

Structure (SMILES): COc1ccc2c(c1)[nH]c1cnc(NC(=O)C3CC3)cc12
- IC50 [1]: 8.1 µM

Structure (SMILES): O=C(Nc1nccc2c1[nH]c1cc(Cl)ccc12)C1CC1
- Papp [5]: 21.5 ×10⁻⁶ cm/s
- IC50 [1]: 5.15 µM

Structure (SMILES): Clc1cccc(Cl)c1N=C1NCCN1 [CLONIDINE]
- Papp [5]: 4 ×10⁻⁶ cm/s

Structure (SMILES): COc1ccc2c(c1)[nH]c1cnc(C)cc12
- IC50 [1]: > 10 µM

Structure (SMILES): COc1ccc2c(c1)[nH]c1c(C)nccc12 [HARMINE]
- Papp [5]: 44.6 ×10⁻⁶ cm/s
- Activity (Mus musculus [16]): Active

Structure (SMILES): NC(=O)c1ccc2c(c1)[nH]c1c(NC(=O)C3CC3)nccc12
- Papp [5]: 0.7 ×10⁻⁶ cm/s
- IC50 [1]: 0.2 µM

Structure (SMILES): O=C(Nc1nccc2c1[nH]c1cc(OC(F)(F)F)ccc12)C1CC1
- IC50 [1]: 7.62 µM

Structure (SMILES): O=C(Nc1nccc2c1[nH]c1cc(C(F)(F)F)ccc12)C1CC1
- IC50 [1]: > 10 µM

Structure (SMILES): COc1ccc2c(c1)[nH]c1c(NC(=O)C3CC3)nccc12
- Papp [5]: 15.6 ×10⁻⁶ cm/s
- IC50 [1]: 0.144 µM

Structure (SMILES): O=C(Nc1cc2c(cn1)[nH]c1cc(-c3cccnc3)ccc12)C1CC1
- IC50 [1]: > 10 µM

Source: ChEMBL document CHEMBL4823268 (Eur J Med Chem, 2021)
